± gives the standard deviation of the averaged measurements.
Columns and labels:
XAV-939 = compound: Oc1nc(-c2ccc(C(F)(F)F)cc2)nc2c1CSCC2 [XAV-939]; experiment: surviving fraction relative to DMSO-only wells; higher = less growth inhibition; conditions: exposure time: 5 days
In short: (§1)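 Viability values are CellTiter-Glo luminescence readings, given as surviving fraction against the median of DMSO-only wells. The readings were taken after 10 minutes at room temperature, following five days of continuous exposure to inhibitors at 0.5, 1, 5, 10, 50, 100, 500 and 1000 nM that began 24 hours after log-phase tumour cell lines were seeded at 250–500 cells per well in 384-well plates. Every line was screened three times and kept only if replicate Pearson r >0.7 and median Z' >0.3.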

TEMOZOLOMIDE = compound: Cn1nnc2c(C(N)=O)ncn2c1=O [TEMOZOLOMIDE]; experiment: as above; conditions: exposure time: 5 days
In short: as §1

Row | Test System | surviving fraction (XAV-939; 0.5 nM) | surviving fraction (XAV-939; 1 nM) | surviving fraction (XAV-939; 5 nM) | surviving fraction (XAV-939; 10 nM) | surviving fraction (XAV-939; 50 nM) | surviving fraction (XAV-939; 100 nM) | surviving fraction (XAV-939; 500 nM) | surviving fraction (XAV-939; 1000 nM) | surviving fraction (TEMOZOLOMIDE; 0.5 nM) | surviving fraction (TEMOZOLOMIDE; 1 nM) | surviving fraction (TEMOZOLOMIDE; 5 nM) | surviving fraction (TEMOZOLOMIDE; 10 nM) | surviving fraction (TEMOZOLOMIDE; 50 nM) | surviving fraction (TEMOZOLOMIDE; 100 nM) | surviving fraction (TEMOZOLOMIDE; 500 nM) | surviving fraction (TEMOZOLOMIDE; 1000 nM)
1 | HCC1395 BREAST | 0.889 ± 0.052 | 0.822 ± 0.34 | 0.987 ± 0.096 | 0.937 ± 0.25 | 0.973 ± 0.12 | 0.847 ± 0.23 | 1.04 ± 0.027 | 0.855 ± 0.14 | 1.03 ± 0.034 | 1.1 ± 0.081 | 1.1 ± 0.11 | 1.02 ± 0.078 | 1.04 ± 0.044 | 1.01 ± 0.14 | 0.922 ± 0.14 | 1.06 ± 0.03
2 | HCC1806 BREAST | 0.98 ± 0.029 | 1.2 ± 0.089 | 1.11 ± 0.078 | 1.07 ± 0.061 | 1.14 ± 0.13 | 1.1 ± 0.036 | 1.04 ± 0.073 | 1.06 ± 0.091 | 1 ± 0.043 | 1.083 ± 0.0076 | 1.19 ± 0.052 | 1.07 ± 0.081 | 1.12 ± 0.086 | 1.09 ± 0.034 | 1.05 ± 0.16 | 1.12 ± 0.11
3 | HCC1954 BREAST | 0.826 ± 0.073 | 1.02 ± 0.041 | 1.15 ± 0.24 | 1.06 ± 0.042 | 1.111 ± 0.0085 | 0.967 ± 0.088 | 0.637 ± 0.0081 | 0.723 ± 0.057 | 1.11 ± 0.19 | 0.956 ± 0.25 | 1.198 ± 0.0064 | 1.2 ± 0.082 | 1.16 ± 0.12 | 0.989 ± 0.13 | 1.04 ± 0.24 | 0.976 ± 0.023
4 | HCT15 LARGE INTESTINE | 1.03 ± 0.058 | 1.07 ± 0.031 | 1.04 ± 0.034 | 1.07 ± 0.059 | 0.932 ± 0.054 | 1.03 ± 0.03 | 0.961 ± 0.064 | 0.973 ± 0.04 | 1.014 ± 0.0029 | 1.029 ± 0.0053 | 0.999 ± 0.055 | 1.02 ± 0.053 | 1.02 ± 0.045 | 1.08 ± 0.05 | 1.04 ± 0.063 | 1.09 ± 0.062
5 | HELA CERVIX | 1.02 ± 0.066 | 1.07 ± 0.033 | 1.06 ± 0.025 | 1.08 ± 0.036 | 1.09 ± 0.059 | 1.16 ± 0.028 | 1.09 ± 0.053 | 1.1 ± 0.049 | 1.04 ± 0.058 | 1.08 ± 0.09 | 1.04 ± 0.019 | 1.12 ± 0.078 | 1.07 ± 0.02 | 1.16 ± 0.084 | 1.07 ± 0.031 | 1.16 ± 0.072
6 | HOS BONE | 1.01 ± 0.028 | 1.05 ± 0.016 | 1.02 ± 0.013 | 1.04 ± 0.0066 | 1.04 ± 0.029 | 1.04 ± 0.011 | 0.996 ± 0.02 | 1.05 ± 0.065 | 0.994 ± 0.018 | 1.038 ± 0.0071 | 1.028 ± 0.0056 | 1.05 ± 0.042 | 1.04 ± 0.012 | 1.04 ± 0.012 | 1.04 ± 0.016 | 1.058 ± 0.0076
7 | HOSMNG BONE | 0.922 ± 0.14 | 1.01 ± 0.11 | 0.947 ± 0.077 | 0.934 ± 0.1 | 0.948 ± 0.17 | 0.944 ± 0.089 | 0.934 ± 0.069 | 1.06 ± 0.094 | 0.835 ± 0.15 | 0.927 ± 0.11 | 0.795 ± 0.051 | 0.89 ± 0.03 | 0.938 ± 0.12 | 0.936 ± 0.16 | 0.995 ± 0.12 | 0.957 ± 0.074
8 | HSSYII SYNOVIAL | 0.942 ± 0.026 | 0.901 ± 0.035 | 0.994 ± 0.043 | 0.976 ± 0.011 | 0.961 ± 0.013 | 0.938 ± 0.031 | 0.667 ± 0.034 | 0.617 ± 0.038 | 0.958 ± 0.033 | 0.957 ± 0.061 | 0.965 ± 0.039 | 0.998 ± 0.051 | 1.02 ± 0.024 | 0.9798 ± 0.0033 | 0.981 ± 0.035 | 0.956 ± 0.04
9 | HT1080 SOFT TISSUE | 1.05 ± 0.018 | 1.04 ± 0.05 | 1.03 ± 0.024 | 1.02 ± 0.023 | 0.971 ± 0.0036 | 0.872 ± 0.0099 | 0.579 ± 0.0091 | 0.476 ± 0.0083 | 1.04 ± 0.039 | 1.03 ± 0.014 | 1.03 ± 0.026 | 1.03 ± 0.022 | 1.03 ± 0.026 | 1.04 ± 0.014 | 1.04 ± 0.017 | 1.03 ± 0.023
10 | HU09 BONE | 1.11 ± 0.087 | 1.13 ± 0.061 | 1.06 ± 0.17 | 1.09 ± 0.051 | 1.01 ± 0.11 | 1.21 ± 0.031 | 0.817 ± 0.049 | 0.788 ± 0.043 | 0.817 ± 0.057 | 1.01 ± 0.042 | 1.08 ± 0.11 | 1.1 ± 0.014 | 0.964 ± 0.14 | 1.12 ± 0.051 | 0.966 ± 0.11 | 0.961 ± 0.076
11 | HUO3N1 BONE | 1.03 ± 0.037 | 1.07 ± 0.12 | 1.04 ± 0.032 | 1.06 ± 0.048 | 1.09 ± 0.064 | 1.08 ± 0.034 | 0.761 ± 0.043 | 0.759 ± 0.0095 | 0.981 ± 0.025 | 0.988 ± 0.045 | 1.029 ± 0.0051 | 1.04 ± 0.042 | 1.01 ± 0.039 | 1.06 ± 0.032 | 0.9827 ± 0.0083 | 1.02 ± 0.03
12 | JIMT1 BREAST | 1 ± 0.013 | 1.03 ± 0.027 | 0.9983 ± 0.008 | 0.995 ± 0.031 | 1 ± 0.05 | 1.04 ± 0.025 | 0.934 ± 0.032 | 0.943 ± 0.0033 | 1 ± 0.022 | 1.03 ± 0.032 | 1.021 ± 0.0081 | 1.07 ± 0.07 | 1 ± 0.022 | 1.04 ± 0.038 | 1.01 ± 0.025 | 1.06 ± 0.065
13 | JURKAT HAEMATOPOIETIC AND LYMPHOID TISSUE | 1.03 ± 0.011 | 1.051 ± 0.0042 | 1.04 ± 0.013 | 1.03 ± 0.03 | 0.9907 ± 0.0059 | 1 ± 0.018 | 0.987 ± 0.02 | 0.981 ± 0.029 | 1.06 ± 0.019 | 1.08 ± 0.024 | 1.05 ± 0.032 | 1.05 ± 0.02 | 1.04 ± 0.029 | 1.01 ± 0.029 | 1.02 ± 0.02 | 1.04 ± 0.013
14 | KPD BONE | 0.937 ± 0.07 | 0.981 ± 0.061 | 0.999 ± 0.048 | 0.995 ± 0.043 | 0.992 ± 0.058 | 0.926 ± 0.035 | 0.883 ± 0.035 | 0.828 ± 0.061 | 0.925 ± 0.022 | 0.955 ± 0.091 | 1.11 ± 0.079 | 1.01 ± 0.024 | 1.06 ± 0.088 | 1.074 ± 0.0076 | 0.983 ± 0.1 | 0.977 ± 0.043
15 | LM7 BONE | 0.964 ± 0.078 | 1.03 ± 0.062 | 1.05 ± 0.075 | 1.131 ± 0.011 | 1.08 ± 0.11 | 1.08 ± 0.048 | 0.915 ± 0.068 | 0.877 ± 0.045 | 0.916 ± 0.081 | 0.989 ± 0.086 | 1.04 ± 0.085 | 1.05 ± 0.049 | 1.05 ± 0.077 | 1.09 ± 0.022 | 0.968 ± 0.065 | 0.967 ± 0.04
16 | LNCAP PROSTATE | 0.85 ± 0.076 | 0.83 ± 0.11 | 0.94 ± 0.058 | 0.921 ± 0.054 | 0.797 ± 0.071 | 0.936 ± 0.1 | 0.741 ± 0.12 | 0.713 ± 0.14 | 0.966 ± 0.088 | 0.915 ± 0.073 | 0.985 ± 0.17 | 0.8907 ± 0.0074 | 0.93 ± 0.034 | 0.963 ± 0.092 | 0.897 ± 0.037 | 0.924 ± 0.083
17 | MCF7 BREAST | 0.941 ± 0.062 | 0.953 ± 0.07 | 0.954 ± 0.033 | 0.937 ± 0.023 | 1.01 ± 0.069 | 1.05 ± 0.041 | 1.03 ± 0.054 | 1.01 ± 0.061 | 0.889 ± 0.03 | 0.932 ± 0.023 | 0.934 ± 0.027 | 0.907 ± 0.054 | 0.922 ± 0.031 | 0.941 ± 0.037 | 0.958 ± 0.058 | 0.987 ± 0.034
18 | MDAMB134 BREAST | 1.05 ± 0.052 | 0.999 ± 0.041 | 1.06 ± 0.17 | 0.93 ± 0.03 | 1.13 ± 0.1 | 1.06 ± 0.22 | 1.15 ± 0.052 | 1.03 ± 0.051 | 0.928 ± 0.0085 | 0.981 ± 0.033 | 0.926 ± 0.14 | 0.902 ± 0.15 | 0.975 ± 0.23 | 1.05 ± 0.17 | 0.953 ± 0.2 | 1.11 ± 0.08
19 | MDAMB157 BREAST | 0.969 ± 0.012 | 0.94 ± 0.11 | 0.974 ± 0.059 | 1.05 ± 0.039 | 0.919 ± 0.084 | 0.934 ± 0.079 | 0.775 ± 0.071 | 0.709 ± 0.074 | 1.02 ± 0.067 | 0.986 ± 0.046 | 0.968 ± 0.09 | 1.1 ± 0.074 | 0.953 ± 0.06 | 1.11 ± 0.028 | 0.927 ± 0.055 | 0.954 ± 0.1
20 | MDAMB231 BREAST | 0.957 ± 0.013 | 1.01 ± 0.028 | 0.982 ± 0.021 | 0.983 ± 0.018 | 0.917 ± 0.016 | 0.866 ± 0.025 | 0.656 ± 0.015 | 0.586 ± 0.026 | 0.9454 ± 0.0069 | 0.992 ± 0.024 | 0.9815 ± 0.008 | 1.01 ± 0.016 | 0.986 ± 0.013 | 0.998 ± 0.023 | 0.975 ± 0.015 | 0.985 ± 0.025
21 | MDAMB361 BREAST | 0.879 ± 0.03 | 0.906 ± 0.036 | 0.955 ± 0.045 | 0.901 ± 0.034 | 1 ± 0.02 | 0.917 ± 0.099 | 0.923 ± 0.024 | 0.874 ± 0.054 | 0.914 ± 0.14 | 0.93 ± 0.017 | 0.917 ± 0.15 | 0.889 ± 0.1 | 0.983 ± 0.16 | 0.925 ± 0.037 | 0.945 ± 0.1 | 0.908 ± 0.042

— the supplement of paper PMC6045584
